Tests used:
[1] = biological target: Tyrosine-protein kinase Lyn (Homo sapiens) (UniProt P07948); experiment: Inhibition of LYN at 10 uM
[2] = biological target: Tyrosine-protein kinase Fyn (Homo sapiens) (UniProt P06241); experiment: Inhibition of FYN at 10 uM
[3] = biological target: Mitogen-activated protein kinase 1 (Homo sapiens) (UniProt P28482); experiment: Inhibition of ERK2 at 10 uM
[4] = biological target: RAC-beta serine/threonine-protein kinase (Homo sapiens) (UniProt P31751); experiment: Inhibition of AKT2 at 10 uM
Sequence of RAC-beta serine/threonine-protein kinase (Homo sapiens) (P31751 whole entry): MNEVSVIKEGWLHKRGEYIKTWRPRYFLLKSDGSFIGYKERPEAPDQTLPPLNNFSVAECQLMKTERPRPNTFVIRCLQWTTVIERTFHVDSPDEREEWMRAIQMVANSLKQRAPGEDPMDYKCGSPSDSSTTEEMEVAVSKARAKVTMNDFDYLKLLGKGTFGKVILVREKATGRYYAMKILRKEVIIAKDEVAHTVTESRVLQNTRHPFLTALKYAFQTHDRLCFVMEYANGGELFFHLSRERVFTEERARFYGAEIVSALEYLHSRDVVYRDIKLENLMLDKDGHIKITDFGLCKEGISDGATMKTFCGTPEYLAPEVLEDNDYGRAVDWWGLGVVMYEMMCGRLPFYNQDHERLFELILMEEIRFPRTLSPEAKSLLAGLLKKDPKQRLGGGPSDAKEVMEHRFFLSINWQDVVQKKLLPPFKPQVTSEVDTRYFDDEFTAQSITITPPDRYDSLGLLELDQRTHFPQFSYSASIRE

[5] = biological target: Insulin receptor (Homo sapiens) (UniProt P06213); experiment: Inhibition of INSR at 10 uM
[6] = biological target: T1, Death-associated protein kinase 3 (Homo sapiens, UniProt O43293); experiment: Inhibition of human recombinant DAPK3 at 10 uM
Target sequence in this assay (O43293 whole entry, looked up): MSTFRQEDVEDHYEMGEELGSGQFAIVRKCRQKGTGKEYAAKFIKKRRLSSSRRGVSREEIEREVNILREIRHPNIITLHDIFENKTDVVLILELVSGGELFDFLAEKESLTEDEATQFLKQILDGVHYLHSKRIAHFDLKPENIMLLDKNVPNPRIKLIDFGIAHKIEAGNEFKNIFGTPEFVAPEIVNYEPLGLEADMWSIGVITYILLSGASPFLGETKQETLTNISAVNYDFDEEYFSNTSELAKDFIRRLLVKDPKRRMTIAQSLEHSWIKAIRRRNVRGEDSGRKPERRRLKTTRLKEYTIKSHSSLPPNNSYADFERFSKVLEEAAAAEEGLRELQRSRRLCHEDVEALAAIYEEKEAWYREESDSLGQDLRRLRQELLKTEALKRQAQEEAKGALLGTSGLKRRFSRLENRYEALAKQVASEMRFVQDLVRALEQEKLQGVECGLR

[7] = biological target: Death-associated protein kinase 1 (Homo sapiens) (UniProt P53355); experiment: Inhibition of DAPK1 at 10 uM
[8] = biological target: Serine/threonine-protein kinase Chk2 (Homo sapiens) (UniProt O96017); experiment: Inhibition of CHK2 at 10 uM
Sequence of Serine/threonine-protein kinase Chk2 (Homo sapiens) (O96017 whole entry): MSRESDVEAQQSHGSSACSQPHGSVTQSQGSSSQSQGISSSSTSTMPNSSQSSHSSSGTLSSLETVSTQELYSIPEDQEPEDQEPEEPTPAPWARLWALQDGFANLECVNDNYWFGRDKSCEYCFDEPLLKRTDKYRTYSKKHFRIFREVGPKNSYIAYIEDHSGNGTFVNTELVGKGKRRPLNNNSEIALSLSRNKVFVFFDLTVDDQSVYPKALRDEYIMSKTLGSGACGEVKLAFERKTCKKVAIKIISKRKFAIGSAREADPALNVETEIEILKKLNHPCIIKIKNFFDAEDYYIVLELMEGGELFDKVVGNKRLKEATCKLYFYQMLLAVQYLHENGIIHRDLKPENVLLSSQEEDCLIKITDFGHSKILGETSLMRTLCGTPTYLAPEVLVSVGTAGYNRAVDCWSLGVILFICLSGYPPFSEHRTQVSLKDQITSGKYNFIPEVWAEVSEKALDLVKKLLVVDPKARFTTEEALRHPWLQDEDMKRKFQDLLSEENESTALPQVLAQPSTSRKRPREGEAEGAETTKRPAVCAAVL

[9] = biological target: RAC-alpha serine/threonine-protein kinase (Homo sapiens) (UniProt P31749); experiment: Inhibition of AKT1 at 10 uM
Sequence of RAC-alpha serine/threonine-protein kinase (Homo sapiens) (P31749 whole entry): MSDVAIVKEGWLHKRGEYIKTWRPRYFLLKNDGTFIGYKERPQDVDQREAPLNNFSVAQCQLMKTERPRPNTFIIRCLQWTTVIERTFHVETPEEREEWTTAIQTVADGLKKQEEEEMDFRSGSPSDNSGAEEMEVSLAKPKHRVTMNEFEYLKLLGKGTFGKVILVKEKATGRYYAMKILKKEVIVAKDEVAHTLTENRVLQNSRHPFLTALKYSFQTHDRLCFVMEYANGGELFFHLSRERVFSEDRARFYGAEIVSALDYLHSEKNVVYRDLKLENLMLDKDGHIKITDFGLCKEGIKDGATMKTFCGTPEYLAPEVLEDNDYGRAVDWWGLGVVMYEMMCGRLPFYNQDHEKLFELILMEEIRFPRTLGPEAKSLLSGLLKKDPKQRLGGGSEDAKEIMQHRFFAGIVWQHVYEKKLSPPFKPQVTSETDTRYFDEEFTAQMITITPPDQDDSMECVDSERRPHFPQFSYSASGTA

[10] = biological target: Glycogen synthase kinase-3 beta (Homo sapiens) (UniProt P49841); experiment: Inhibition of GSK3-beta at 10 uM
[11] = biological target: T2, Protein kinase C zeta type (Homo sapiens) (UniProt Q05513); experiment: Inhibition of PKCzeta at 10 uM
T2 sequence (whole entry): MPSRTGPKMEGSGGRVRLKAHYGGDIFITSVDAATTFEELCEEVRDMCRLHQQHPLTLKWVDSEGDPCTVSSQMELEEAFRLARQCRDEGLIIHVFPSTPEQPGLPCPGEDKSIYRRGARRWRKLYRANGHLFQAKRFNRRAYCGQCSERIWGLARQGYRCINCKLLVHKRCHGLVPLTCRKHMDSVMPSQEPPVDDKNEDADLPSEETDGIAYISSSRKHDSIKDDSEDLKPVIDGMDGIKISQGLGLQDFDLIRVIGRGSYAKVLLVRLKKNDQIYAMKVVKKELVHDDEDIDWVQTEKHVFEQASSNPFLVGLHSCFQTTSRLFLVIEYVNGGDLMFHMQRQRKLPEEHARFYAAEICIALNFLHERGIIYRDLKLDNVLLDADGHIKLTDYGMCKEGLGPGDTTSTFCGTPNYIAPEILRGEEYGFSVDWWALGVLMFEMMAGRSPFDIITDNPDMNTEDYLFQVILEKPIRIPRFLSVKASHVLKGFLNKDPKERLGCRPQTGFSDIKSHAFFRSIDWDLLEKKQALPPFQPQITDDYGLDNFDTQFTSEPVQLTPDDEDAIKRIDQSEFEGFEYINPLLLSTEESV

[12] = biological target: Proto-oncogene tyrosine-protein kinase Src (Homo sapiens) (UniProt P12931); experiment: Inhibition of SRC at 10 uM
Sequence of Proto-oncogene tyrosine-protein kinase Src (Homo sapiens) (P12931 2-536 limits assumed): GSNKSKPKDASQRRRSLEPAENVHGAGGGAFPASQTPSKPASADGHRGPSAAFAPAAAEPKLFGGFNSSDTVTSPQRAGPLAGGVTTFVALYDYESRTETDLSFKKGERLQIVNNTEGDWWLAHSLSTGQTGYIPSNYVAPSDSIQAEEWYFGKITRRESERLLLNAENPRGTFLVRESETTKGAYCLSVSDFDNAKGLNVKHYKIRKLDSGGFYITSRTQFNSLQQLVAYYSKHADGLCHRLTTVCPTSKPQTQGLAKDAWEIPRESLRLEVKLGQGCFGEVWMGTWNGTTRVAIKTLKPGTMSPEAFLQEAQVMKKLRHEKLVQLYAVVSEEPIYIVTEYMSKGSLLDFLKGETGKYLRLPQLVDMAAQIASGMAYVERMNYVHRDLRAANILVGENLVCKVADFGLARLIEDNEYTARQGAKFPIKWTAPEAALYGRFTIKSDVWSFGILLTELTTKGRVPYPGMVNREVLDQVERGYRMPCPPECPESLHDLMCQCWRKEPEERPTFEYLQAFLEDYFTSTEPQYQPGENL

[13] = biological target: Ribosomal protein S6 kinase alpha-5 (Homo sapiens) (UniProt O75582); experiment: Inhibition of MSK1 at 10 uM
Sequence of Ribosomal protein S6 kinase alpha-5 (Homo sapiens) (O75582 whole entry, looked up): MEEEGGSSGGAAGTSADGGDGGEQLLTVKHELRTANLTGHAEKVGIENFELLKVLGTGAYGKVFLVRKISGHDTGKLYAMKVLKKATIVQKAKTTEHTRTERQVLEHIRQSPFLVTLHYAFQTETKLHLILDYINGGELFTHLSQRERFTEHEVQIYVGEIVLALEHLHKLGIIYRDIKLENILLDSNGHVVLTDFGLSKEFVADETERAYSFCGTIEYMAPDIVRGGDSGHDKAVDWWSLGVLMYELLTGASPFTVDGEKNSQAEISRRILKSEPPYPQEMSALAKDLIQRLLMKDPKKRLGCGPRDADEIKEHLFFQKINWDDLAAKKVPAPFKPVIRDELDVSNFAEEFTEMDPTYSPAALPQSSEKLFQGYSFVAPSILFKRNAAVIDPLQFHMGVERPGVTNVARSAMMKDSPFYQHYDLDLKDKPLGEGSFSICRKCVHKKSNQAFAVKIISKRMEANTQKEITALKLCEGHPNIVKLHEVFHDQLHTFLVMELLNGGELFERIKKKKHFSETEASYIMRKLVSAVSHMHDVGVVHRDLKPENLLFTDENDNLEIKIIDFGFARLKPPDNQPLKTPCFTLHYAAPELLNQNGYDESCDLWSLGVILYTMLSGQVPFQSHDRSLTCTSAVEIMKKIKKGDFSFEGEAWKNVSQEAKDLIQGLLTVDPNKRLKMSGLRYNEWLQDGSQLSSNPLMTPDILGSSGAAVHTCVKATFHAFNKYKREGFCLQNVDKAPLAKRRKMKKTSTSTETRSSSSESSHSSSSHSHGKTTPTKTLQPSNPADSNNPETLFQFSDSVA

[14] = biological target: Ribosomal protein S6 kinase alpha-1 (Homo sapiens) (UniProt Q15418); experiment: Inhibition of RSK1 at 10 uM
Sequence of Ribosomal protein S6 kinase alpha-1 (Homo sapiens) (Q15418 whole entry): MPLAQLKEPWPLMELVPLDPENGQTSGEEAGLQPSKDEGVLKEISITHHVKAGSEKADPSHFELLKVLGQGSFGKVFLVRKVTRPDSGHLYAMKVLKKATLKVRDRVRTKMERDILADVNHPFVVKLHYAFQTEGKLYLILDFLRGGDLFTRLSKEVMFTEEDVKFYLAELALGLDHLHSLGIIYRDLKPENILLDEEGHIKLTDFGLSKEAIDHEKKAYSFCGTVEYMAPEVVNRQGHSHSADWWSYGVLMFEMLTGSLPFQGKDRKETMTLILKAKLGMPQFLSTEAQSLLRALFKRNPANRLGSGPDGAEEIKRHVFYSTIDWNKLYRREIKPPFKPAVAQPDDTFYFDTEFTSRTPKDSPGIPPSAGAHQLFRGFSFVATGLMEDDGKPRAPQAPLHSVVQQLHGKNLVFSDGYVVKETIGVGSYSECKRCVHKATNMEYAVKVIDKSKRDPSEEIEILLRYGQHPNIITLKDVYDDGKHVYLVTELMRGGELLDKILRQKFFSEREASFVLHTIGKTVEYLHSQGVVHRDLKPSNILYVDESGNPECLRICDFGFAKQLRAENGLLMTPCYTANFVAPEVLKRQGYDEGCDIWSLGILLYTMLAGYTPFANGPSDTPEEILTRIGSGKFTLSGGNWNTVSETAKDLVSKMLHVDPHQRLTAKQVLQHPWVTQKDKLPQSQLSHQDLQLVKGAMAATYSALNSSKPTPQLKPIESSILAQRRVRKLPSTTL

[15] = biological target: Mitogen-activated protein kinase 14 (Homo sapiens) (UniProt Q16539); experiment: Inhibition of P38alpha at 10 uM
Sequence of Mitogen-activated protein kinase 14 (Homo sapiens) (Q16539 whole entry): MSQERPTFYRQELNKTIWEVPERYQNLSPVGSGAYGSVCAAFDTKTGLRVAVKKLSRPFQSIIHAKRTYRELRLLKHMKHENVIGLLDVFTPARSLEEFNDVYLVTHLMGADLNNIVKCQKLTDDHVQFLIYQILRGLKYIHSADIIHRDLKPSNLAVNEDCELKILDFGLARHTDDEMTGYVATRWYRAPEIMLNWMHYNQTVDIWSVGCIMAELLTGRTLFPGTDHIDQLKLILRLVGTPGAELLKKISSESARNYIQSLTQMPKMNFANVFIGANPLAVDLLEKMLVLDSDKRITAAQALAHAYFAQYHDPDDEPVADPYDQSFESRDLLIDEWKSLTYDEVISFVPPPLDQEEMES

[16] = biological target: Tyrosine-protein kinase Lck (Homo sapiens) (UniProt P06239); experiment: Inhibition of LCK at 10 uM
[17] = biological target: Tyrosine-protein kinase ABL1 (Homo sapiens) (UniProt P00519); experiment: Inhibition of ABL at 10 uM
[18] = biological target: MAP kinase-activated protein kinase 2 (Homo sapiens) (UniProt P49137); experiment: Inhibition of MAPKAPK2 at 10 uM
[19] = biological target: T3, Aurora kinase A (Homo sapiens) (UniProt O14965); experiment: Inhibition of Aurora A at 10 uM
T3 sequence (whole entry): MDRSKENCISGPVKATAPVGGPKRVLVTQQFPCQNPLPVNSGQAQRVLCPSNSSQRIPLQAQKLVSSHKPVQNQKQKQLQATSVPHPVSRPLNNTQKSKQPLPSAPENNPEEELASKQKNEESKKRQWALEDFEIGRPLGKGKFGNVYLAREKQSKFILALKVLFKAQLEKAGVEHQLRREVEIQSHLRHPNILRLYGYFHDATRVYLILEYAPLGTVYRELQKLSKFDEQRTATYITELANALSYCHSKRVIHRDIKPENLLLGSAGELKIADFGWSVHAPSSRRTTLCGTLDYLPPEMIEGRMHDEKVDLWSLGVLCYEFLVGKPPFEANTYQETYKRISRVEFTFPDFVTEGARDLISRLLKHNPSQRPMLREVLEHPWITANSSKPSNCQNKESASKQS

[20] = biological target: T4, Serine/threonine-protein kinase Chk1 (Homo sapiens) (UniProt O14757); experiment: Inhibition of CHK1 at 10 uM
T4 sequence (whole entry): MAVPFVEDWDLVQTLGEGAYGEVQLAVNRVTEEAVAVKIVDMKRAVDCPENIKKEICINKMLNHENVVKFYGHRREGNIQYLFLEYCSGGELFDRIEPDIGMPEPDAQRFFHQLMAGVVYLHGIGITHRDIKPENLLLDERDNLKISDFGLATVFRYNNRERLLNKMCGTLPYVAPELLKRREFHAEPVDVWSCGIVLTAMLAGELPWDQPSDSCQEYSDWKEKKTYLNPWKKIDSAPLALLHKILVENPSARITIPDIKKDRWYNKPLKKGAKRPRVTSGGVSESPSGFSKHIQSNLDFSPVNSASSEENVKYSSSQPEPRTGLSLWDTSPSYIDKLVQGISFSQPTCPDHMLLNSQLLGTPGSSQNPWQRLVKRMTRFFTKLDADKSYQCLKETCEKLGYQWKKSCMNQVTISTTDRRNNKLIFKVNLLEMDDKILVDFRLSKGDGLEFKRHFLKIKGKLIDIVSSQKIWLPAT

[21] = biological target: Mitogen-activated protein kinase 3 (Homo sapiens) (UniProt P27361); experiment: Inhibition of ERK1 at 10 uM
[22] = biological target: Hepatocyte growth factor receptor (Homo sapiens) (UniProt P08581); experiment: Inhibition of MET at 10 uM
[23] = biological target: MAP kinase-activated protein kinase 5 (Homo sapiens) (UniProt Q8IW41); experiment: Inhibition of PRAK at 10 uM
[24] = Inhibition of PKA at 10 uM
[25] = biological target: T5, Serine/threonine-protein kinase D2 (Homo sapiens) (UniProt Q9BZL6); experiment: Inhibition of PKD2 at 10 uM
T5 sequence (whole entry): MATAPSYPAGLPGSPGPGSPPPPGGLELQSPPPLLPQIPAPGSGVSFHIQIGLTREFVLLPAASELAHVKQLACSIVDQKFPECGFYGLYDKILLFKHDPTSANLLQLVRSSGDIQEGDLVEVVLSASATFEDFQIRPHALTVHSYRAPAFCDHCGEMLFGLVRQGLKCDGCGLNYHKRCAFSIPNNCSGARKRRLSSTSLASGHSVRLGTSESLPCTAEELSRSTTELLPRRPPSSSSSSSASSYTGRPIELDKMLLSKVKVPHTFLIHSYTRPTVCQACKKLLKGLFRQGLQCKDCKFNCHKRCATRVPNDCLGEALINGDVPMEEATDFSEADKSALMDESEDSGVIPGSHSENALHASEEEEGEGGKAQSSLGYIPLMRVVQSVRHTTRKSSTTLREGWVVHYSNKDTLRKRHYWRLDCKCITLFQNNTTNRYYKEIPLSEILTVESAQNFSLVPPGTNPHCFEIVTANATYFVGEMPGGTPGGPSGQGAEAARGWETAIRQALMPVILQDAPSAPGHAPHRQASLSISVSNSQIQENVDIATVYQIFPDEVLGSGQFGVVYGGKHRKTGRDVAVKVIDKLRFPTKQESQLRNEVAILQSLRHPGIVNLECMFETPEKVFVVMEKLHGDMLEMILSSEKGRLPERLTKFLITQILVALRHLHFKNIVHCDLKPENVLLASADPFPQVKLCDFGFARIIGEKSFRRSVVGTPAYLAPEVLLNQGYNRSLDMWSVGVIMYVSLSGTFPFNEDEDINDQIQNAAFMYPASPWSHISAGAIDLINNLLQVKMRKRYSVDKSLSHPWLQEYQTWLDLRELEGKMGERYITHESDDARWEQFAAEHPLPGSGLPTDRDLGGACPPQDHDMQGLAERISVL

[26] = biological target: T1, Death-associated protein kinase 3; experiment: Inhibition of human recombinant DAPK3
Target sequence in this assay (O43293 whole entry): as the sequence (O43293 whole entry, looked up) above

[27] = biological target: T1, Death-associated protein kinase 3; experiment: Inhibition of human recombinant DAPK3 at 1 uM
Target sequence in this assay (O43293 whole entry, looked up): as above

Sequence of Mitogen-activated protein kinase 1 (Homo sapiens) (P28482 whole entry): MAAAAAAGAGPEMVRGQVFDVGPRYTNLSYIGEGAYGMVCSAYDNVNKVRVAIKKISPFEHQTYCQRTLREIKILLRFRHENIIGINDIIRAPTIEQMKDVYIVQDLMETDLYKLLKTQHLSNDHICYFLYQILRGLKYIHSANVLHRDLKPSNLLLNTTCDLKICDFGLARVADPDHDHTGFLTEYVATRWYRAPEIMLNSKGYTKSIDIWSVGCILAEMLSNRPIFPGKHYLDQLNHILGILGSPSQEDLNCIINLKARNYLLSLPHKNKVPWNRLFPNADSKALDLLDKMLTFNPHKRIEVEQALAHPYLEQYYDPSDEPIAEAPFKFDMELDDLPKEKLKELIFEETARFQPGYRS

inhibition [3] [%] | inhibition [4] [%] | inhibition [8] [%] | inhibition [9] [%] | inhibition [10] [%] | inhibition [11] [%] | inhibition [12] [%] | inhibition [13] [%] | inhibition [14] [%] | inhibition [15] [%] | inhibition [16] [%] | inhibition [19] [%] | inhibition [20] [%] | inhibition [21] [%] | Compound | inhibition [6] [%] | inhibition [7] [%] | other results
20 | 17 | 17 | 15 | 3 | 3 | 5 | 13 | 4 | 8 | 8 | 14 | 12 | 7 | O=C1OC(/C=C/c2ccccc2)=NC/1=C\c1cccnc1 | 100 | 91 | inhibition [1]: 1%; inhibition [2]: 1%; inhibition [5]: 4%; inhibition [17]: 9%; inhibition [18]: 46%; inhibition [22]: 3%; inhibition [23]: 5%
10 | 17 | 24 | 13 | 7 | -3 | 3 | 0 | 10 | 2 | 8 | 15 | 12 | 25 | O=C1OC(c2ccc(Cl)cc2)=N/C1=C\c1cccnc1 | 96 | 76 | inhibition [24]: 9%; inhibition [25]: 17%; IC50 [26]: 529 nM; inhibition [27]: 85%
